Test [1] has as its target Enzyme (kinases of Table 30) (Homo sapiens, UniProt Q86V86). Briefly: IC50 of Compound (nM) (ATP present at Km of enzyme), Table 30. It is filed as biochemical.
In test [2] the target is Enzyme (kinases of Table 30) (Homo sapiens, UniProt Q9P1W9). Described as above. Format: biochemical.
The target in test [3] is Enzyme (kinases of Table 30) (Homo sapiens, UniProt P11309). Described as above. Format: biochemical.
Test [4] concerns cell lines. Briefly: Selected cell proliferation inhibition data: cytotoxicity and IC50 determination (MTS/PMS, 72 hours), Tables 27 and 28. It is filed as cell-based. The settings on record: Homo sapiens; for inhibition at 30 µM: 30 μM compound; for IC50: 72 hours, MTS. How it is done: Selected Cell Proliferation Inhibition Data
All cells were cultured in media supplemented with 10% FBS except for which are marked specially, in the temperature of 37° C., 5% CO2 and 95% humidity. All culture media were purchased from GIBCO (USA, IMDM Cat. 12200-036; RPMI Medium 1640 Cat. 31800-022; 2-mercaptoethanol Cat. 21985-023).
• CellTiter 96® AQueous MTS reagent powder (Cat. No.: G11 12, Promega. Store MTS Reagent Powder desiccated at 4° C. protected from light.) • Phenazine methosulfate (PMS) (Product No.: P9625, SIGMA. Store PMS Powder desiccated at 4° C. protected from light.) Preparation of PMS Solution:
The following protocol is recommended for the preparation of 21 mL of MTS solution (sufficient for ten 96-well plates). • a. Select a light-protected container or wrap a container with foil. • b. Add 21 mL of DPBS to the container. • c. Weigh out 42 mg of MTS Reagent Powder and add to DPBS. • d. Mix at moderate speed on a magnetic stir plate for 15 minutes or until the MTS is completely dissolved. • e. Measure the pH of the MTS solution. The optimum pH is between pH 6.0 to 6.5. If the solution is above pH 6.5, adjust to pH 6.5 with 1N HC1. • f. Filter-sterilize the MTS solution through a 0.2 μm filter into a sterile, light protected container. • g. Store the MTS solution at −20° C., protected from light. Preparation of the Mixture of MTS/PMS: • a. In order to prepare reagents sufficient for one 96-well plate containing cells cultured in a 100 μL volume, thaw the MTS solution and the PMS solution. It should take approximately 90 minutes at room temperature or 10 minutes in a 37° C. water bath to completely thaw the 20 mL size of MTS solution. […] Remove 2.0 mL of MTS solution from the amber reagent bottle using aseptic technique and transfer to a test tube. • c. Add 100 μL of PMS solution to the 2.0 mL of MTS solution immediately before addition to the culture plate containing cells. • d. Gently swirl the tube to ensure complete mixing of the combined MTS/PMS solution. Equipment:
• 1. The cells were harvested respectively during the logarithmic growth period and counted with hemocytometer. The cell viability was over 98% by trypan blue exclusion. • 2. Cell concentrations were adjusted to 2.22×10^5 or 1.11×10^5 or 5.56×10^4 cells/mL with respective medium. • 3. 90 μL cell suspensions were added to 96-well plates (triplicates for each cell concentration), the final cell densities were 2×10^4 or 1×10^4 or 5×10^3 cells/well. The density of 5×10^3 cells/well was used for the first test. The appropriate cell density was determined and adjusted according to the results of the first test. • 4. The next day, test article or positive drugs were dissolved with DMSO as stock solution at the concentration of 20 mM. • 5. 10 μL drug solution was dispensed in each well (triplicate for each drug concentration). • 6. Plates were cultured for another 72 hours, then measured by means of MTS assay. • 7. MTS/PMS solution was prepared immediately prior to use. 20 μL of the mixture was introduced into each well of the 96-well assay plate containing 100 μL culture medium. (The final reaction volume was 120 μL). • 8. Plate was incubated for 1-4 hours at 37° C. in a humidified 5% CO2 atmosphere. • 9. Absorbance at 490 nm was recorded using SpectraMAX Plus microplate spectrophotometer. Data Analysis:
The software of GraphPad Prism version 5 was used to calculate IC50. The graphical curves were fitted using a nonlinear regression model with a sigmoidal dose.

The mark [5] stands for this setting: Pim-3(h), ATP present at Km of enzyme, read-out: IC50 of Compound, Pim-3(h).
[6] abbreviates: Pim-2(h), ATP present at Km of enzyme, read-out: IC50 of Compound, Pim-2(h).
[7] abbreviates: Pim-1(h), ATP present at Km of enzyme, read-out: IC50 of Compound, Pim-1(h).
[8] abbreviates: MV4-11 cell line, read-out: Percent inhibition at 30 μM of Compound, MV4-11.
Setting [9] is: NCI-H929 cell line, read-out: Percent inhibition at 30 μM of Compound, NCI-H929.
Setting [10] is: NCI-H929 cell line, read-out: IC50 values, NCI-H929.
[11] abbreviates: RPMI 8226 cell line, read-out: Percent inhibition at 30 μM of Compound, RPMI 8226.
Setting [12] is: RPMI 8226 cell line, read-out: IC50 values, RPMI 8226.
Setting [13] is: MV4-11 cell line, read-out: IC50 values, MV4-11.

Where two headings read alike, the source gives them in different places.

Enzyme (kinases of Table 30) (Homo sapiens, UniProt P11309), sequence (P11309 whole entry): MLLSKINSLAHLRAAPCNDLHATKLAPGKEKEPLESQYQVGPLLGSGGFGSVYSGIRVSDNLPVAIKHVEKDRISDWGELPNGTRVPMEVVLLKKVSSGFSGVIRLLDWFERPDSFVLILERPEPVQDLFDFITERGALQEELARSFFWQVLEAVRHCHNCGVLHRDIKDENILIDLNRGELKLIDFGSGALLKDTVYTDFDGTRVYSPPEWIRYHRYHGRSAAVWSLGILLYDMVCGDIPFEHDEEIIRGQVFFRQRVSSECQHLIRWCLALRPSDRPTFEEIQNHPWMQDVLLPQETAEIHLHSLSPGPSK
Enzyme (kinases of Table 30) (Homo sapiens, UniProt Q9P1W9), sequence (Q9P1W9 whole entry): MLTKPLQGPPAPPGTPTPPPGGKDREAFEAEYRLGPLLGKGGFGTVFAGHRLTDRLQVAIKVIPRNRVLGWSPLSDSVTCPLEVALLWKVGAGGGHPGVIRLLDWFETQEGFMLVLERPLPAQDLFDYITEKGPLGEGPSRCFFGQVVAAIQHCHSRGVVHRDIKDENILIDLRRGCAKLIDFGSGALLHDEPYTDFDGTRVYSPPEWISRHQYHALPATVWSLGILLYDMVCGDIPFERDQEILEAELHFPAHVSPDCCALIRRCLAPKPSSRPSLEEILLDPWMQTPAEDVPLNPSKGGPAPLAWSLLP

One may read the IC50 as the concentration needed to halve the response being measured. In the case of `O=C1NC(=O)/C(=C/c2ccnc(N3CCC(CNCc4ccc5ccccc5n4)CC3)n2)S1` [compound 180], the IC50 is 0.015 µM in test [1] (setting [5]), 0.015 µM in test [2] (setting [6]) and 0.013 µM in test [3] (setting [7]).
In the case of `O=C1NC(=O)/C(=C/c2ccnc(N3CCCC4NCCCC43)n2)S1` (stereo not shown) [compound 155], the results for the IC50 in test [1], in test [2] and in test [3] were 0.009 µM, 0.014 µM and 0.019 µM, respectively.
For orientation: inhibition means the percentage by which the read-out fell short of the control. As for `COc1cccc(CNCC2CCN(c3nccc(/C=C4\SC(=O)NC4=O)n3)CC2)n1` [Example 183, (Z)-5-((2-(4-((((6-methoxypyridin-2-yl)methyl)amino)methyl)piperidin-1-yl)pyrimidin-4-yl)methylene)thiazolidine-2,4-dione], the inhibition at 30 µM in test [4] (setting [8]) turned out to be 94.4%; in test [4] (setting [9]) it was 98.6%; in test [4] (setting [11]), 82.3%. Also, the IC50 in test [4] (setting [10]) turned out to be 4.6 µM; in test [4] (setting [12]) it was 9.6 µM.
For `CC1CCCN(c2nccc(/C=C3\SC(=O)NC3=O)n2)C1` (stereo not shown) [compound 117], the 50% inhibitory concentration (IC50) is 0.436 µM in test [1] (setting [5]), 0.05 µM in test [2] (setting [6]) and 0.164 µM in test [3] (setting [7]).
`O=C1NC(=O)/C(=C/c2ccnc(N3CCC(CNCc4ccc5cc(F)ccc5n4)CC3)n2)S1` [Example 191, (Z)-5-((2-(4-((((6-fluoroquinolin-2-yl)methyl)amino)methyl)piperidin-1-yl)pyrimidin-4-yl)methylene)thiazolidine-2,4-dione]: the inhibition at 30 µM in test [4] (setting [8]) is 87.4%; in test [4] (setting [9]) it was 94%; in test [4] (setting [11]) it was 93.1%. Further, the half-maximal inhibitory concentration (IC50) amounted to 2.4 µM in test [4] (setting [13]), 3.26 µM in test [4] (setting [10]) and 6.86 µM in test [4] (setting [12]).
`O=C1NC(=O)/C(=C/c2ccnc(N3CCC(CNCc4nccc5ccccc45)CC3)n2)S1` [Example 182, (Z)-5-((2-(4-(((isoquinolin-1-ylmethyl)amino)methyl)piperidin-1-yl)pyrimidin-4-yl)methylene)thiazolidine-2,4-dione]: the values for the inhibition at 30 µM in test [4] (setting [8]), in test [4] (setting [9]) and in test [4] (setting [11]) were 91.1%, 96.5% and 90.2%, respectively. For the same molecule, the IC50 in test [4] (setting [13]) came out at 2.02 µM; in test [4] (setting [10]) it was 7.08 µM; in test [4] (setting [12]) it was 11.9 µM.
With `Cc1cccc(CNCC2CCN(c3nccc(/C=C4\SC(=O)NC4=O)n3)CC2)n1` [compound 174], the IC50 in test [1] (setting [5]) was found to be 0.016 µM; in test [2] (setting [6]), 0.075 µM; in test [3] (setting [7]) it was 0.058 µM.
Consider `Cc1ccc(N2CCN(c3nccc(/C=C4\SC(=O)NC4=O)n3)CC2)cc1` [Example 9, (Z)-5-((2-(4-(p-tolyl)piperazin-1-yl)pyrimidin-4-yl)methylene)thiazolidine-2,4-dione], for which the inhibition at 30 µM was determined as 91.1% in test [4] (setting [8]), 91.4% in test [4] (setting [9]) and 71.2% in test [4] (setting [11]). Besides, the IC50 in test [4] (setting [13]) was determined as 6.78 µM; in test [4] (setting [10]), 11.5 µM; in test [4] (setting [12]) it was 16.1 µM.
With `O=C1NC(=O)/C(=C/c2ccnc(N3CCCC4NCCCC43)n2)S1` (stereo not shown) [Example 155, (Z)-5-((2-(octahydro-1,5-naphthyridin-1(2H)-yl)pyrimidin-4-yl)methylene)thiazolidine-2,4-dione], the figures for the inhibition at 30 µM in test [4] (setting [8]), in test [4] (setting [9]) and in test [4] (setting [11]) were 97.6%, 73.7% and 53.9%, respectively. Besides, the IC50 in test [4] (setting [13]) is 12.5 µM; in test [4] (setting [10]) it was 3.96 µM.
Turning to `O=C1NC(=O)/C(=C/c2ccnc(NC3CNc4ccccc4C3)n2)S1` (stereo not shown) [Example 140, (Z)-5-((2-((1,2,3,4-tetrahydroquinolin-3-yl)amino)pyrimidin-4-yl)methylene)thiazolidine-2,4-dione], the inhibition at 30 µM was determined as 94.3% in test [4] (setting [8]), 96.7% in test [4] (setting [9]) and 65.3% in test [4] (setting [11]). Further, the results for the IC50 in test [4] (setting [13]), in test [4] (setting [10]) and in test [4] (setting [12]) were 5.51 µM, 8.84 µM and 11.2 µM, respectively.
As for `O=C1NC(=O)/C(=C/c2ccnc(N3CCC(CNCc4ccc5cc(F)ccc5n4)CC3)n2)S1` [compound 191], the IC50 came to 0.005 µM in test [1] (setting [5]), 0.023 µM in test [2] (setting [6]) and 0.006 µM in test [3] (setting [7]).
For the molecule `Cc1cc(CNCC2CCN(c3nccc(/C=C4\SC(=O)NC4=O)n3)CC2)c2ccccc2n1` [compound 181], the values for the IC50 in test [1] (setting [5]), in test [2] (setting [6]) and in test [3] (setting [7]) were 0.034 µM, 0.044 µM and 0.079 µM, respectively.
The corresponding values for `O=C1NC(=O)/C(=C/c2ccnc(N3CCC(CNCc4ccccn4)CC3)n2)S1` [compound 172] are 0.046 µM, 0.142 µM and 0.157 µM.
The corresponding values for `CC1CC(C)CN(c2nccc(/C=C3\SC(=O)NC3=O)n2)C1` (stereo not shown) [compound 99] are 0.199 µM, 0.018 µM and 0.137 µM.
For the molecule `COc1cccc2ccc(CNCC3CCN(c4nccc(/C=C5\SC(=O)NC5=O)n4)CC3)nc12` [Example 189, (Z)-5-((2-(4-((((8-methoxyquinolin-2-yl)methyl)amino)methyl)piperidin-1-yl)pyrimidin-4-yl)methylene)thiazolidine-2,4-dione], the figures for the inhibition at 30 µM in test [4] (setting [8]), in test [4] (setting [9]) and in test [4] (setting [11]) were 97.9%, 98.5% and 99.9%, respectively. Besides, the IC50 in test [4] (setting [13]) is 4.71 µM; in test [4] (setting [10]), 3.04 µM; in test [4] (setting [12]) it was 8.32 µM.
Consider `Nc1cccc2c1CCN(c1nccc(/C=C3\SC(=O)NC3=O)n1)C2` [Example 120, (Z)-5-((2-(5-amino-3,4-dihydroisoquinolin-2(1H)-yl)pyrimidin-4-yl)methylene)thiazolidine-2,4-dione], for which the figures for the inhibition at 30 µM in test [4] (setting [8]), in test [4] (setting [9]) and in test [4] (setting [11]) were 95.1%, 89.8% and 76.4%, respectively. The IC50 in test [4] (setting [13]) amounted to 4.05 µM; in test [4] (setting [10]) it was 2.81 µM; in test [4] (setting [12]) it was 1.54 µM.
For `Cc1cc(CNCC2CCN(c3nccc(/C=C4\SC(=O)NC4=O)n3)CC2)c2ccccc2n1` [Example 181, (Z)-5-((2-(4-((((2-methylquinolin-4-yl)methyl)amino)methyl)piperidin-1-yl)pyrimidin-4-yl)methylene)thiazolidine-2,4-dione], the inhibition at 30 µM in test [4] (setting [8]) turned out to be 96.6%; in test [4] (setting [9]), 93.5%; in test [4] (setting [11]), 82.2%. Moreover, the IC50 in test [4] (setting [13]) is 1.2 µM; in test [4] (setting [10]) it was 4.42 µM; in test [4] (setting [12]), 3.41 µM.
For the molecule `O=C1NC(=O)/C(=C/c2ccnc(N3CCC(CNCc4ccc5ccccc5n4)CC3)n2)S1` [Example 180, (Z)-5-((2-(4-(((quinolin-2-ylmethyl)amino)methyl)piperidin-1-yl)pyrimidin-4-yl)methylene)thiazolidine-2,4-dione], the inhibition at 30 µM in test [4] (setting [8]) was determined as 90.7%; in test [4] (setting [9]) it was 100%; in test [4] (setting [11]), 79.7%. The values for the IC50 in test [4] (setting [13]), in test [4] (setting [10]) and in test [4] (setting [12]) were 11 µM, 10.9 µM and 9.13 µM, respectively.

The values above are taken from patent US9157077B2, “Aminopyrimidine kinase inhibitors” (Jasco Pharmaceuticals, LLC, priority 2009, dated 2015).
